In brackets after ≈: the same amount, converted by molar mass. Like-named read-outs stand apart in the source and are kept apart here.
Columns and labels:
[1] = system: HIV-1 NL4-3 (wild-type); assay: microbe, parasite or virus in culture; type: cell-based; settings: for EC50: Human immunodeficiency virus 1, NL43, TZM-bl; for SI (selectivity index): ratio CC50/EC50
[2] = Human liver microsome stability assay; type: in vitro ADME; settings: for microsomal CLint at 1 μM: human, human liver microsomes, pH 7.4; for HLM t1/2: human liver microsomes 0.1 mg/mL, 1 μM compound, 37 °C, at least two experiments
[3] = Aqueous solubility determination; type: physicochemical
[4] = In vitro cytotoxicity in TZM-bl cells; type: cell-based; settings: human

CNC(=O)c1cc(N)c(Nc2ccc(C#N)cc2)cc1Oc1c(C)cc(/C=C/C#N)cc1C [14f, (E)-N^1-(4′-Cyanophenyl)-5-(4″-cyanovinyl-2″,6″-dimethylphenoxy)-4-methylcarbamoylbenzene-1,2-diamine]
EC50 [1]: 5.72 nM
EC50 ([1]; read-out: EC50 NL4-3 (wt)): 5.72 ± 0.94 nM
microsomal CLint at 1 μM [2]: 150 µL/min/mg

Cc1cc(/C=C/C#N)cc(C)c1Oc1cc(Nc2ccc(C#N)cc2)c(N)cc1C(N)=O [14e, (E)-4-Carbamoyl-N^1-(4′-cyanophenyl)-5-(4″-cyanovinyl-2″,6″-dimethylphenoxy)benzene-1,2-diamine]
EC50 [1]: 0.87 nM
EC50 ([1]; read-out: EC50 NL4-3): 0.87 nM
EC50 ([1]; read-out: EC50 NL4-3 (wt)): 0.87 ± 0.28 nM

Cc1cc(CCC#N)cc(C)c1Oc1cc(Nc2ccc(C#N)cc2)c(N)cc1CO [15h, 5-(4″-Cyanoethyl-2″,6″-dimethylphenoxy)-N^1-(4′-cyanophenyl)-4-hydroxymethylbenzene-1,2-diamine]
microsomal CLint at 1 μM [2]: 330 µL/min/mg

Cc1cc(/C=C/C#N)cc(C)c1Oc1cc(Nc2ccc(C#N)cc2)c(N)cc1C(F)(F)F [14a, (E)-N^1-(4′-Cyanophenyl)-5-(4″-cyanovinyl-2″,6″-dimethylphenoxy)-4-trifluoromethylbenzene-1,2-diamine]
microsomal CLint at 1 μM [2]: 150 µL/min/mg

Cc1cc(/C=C/C#N)cc(C)c1Oc1cc(Nc2ccc(C#N)cc2)c(N)cc1CO [14h, (E)-N^1-(4′-Cyanophenyl)-5-(4″-cyanovinyl-2″,6″-dimethylphenoxy)-4-hydroxymethylbenzene-1,2-diamine]
EC50 [1]: 0.53 nM
EC50 ([1]; read-out: EC50 NL4-3): 0.53 nM
EC50 ([1]; read-out: EC50 NL4-3 (wt)): 0.53 ± 0.13 nM
HLM t1/2 [2]: 30.2 min

Cc1cc(CO)cc(C)c1Oc1cc(Nc2ccc(C#N)cc2)c(N)cc1CO [13e, N^1-(4′-Cyanophenyl)-5-(2″,6″-dimethyl-4″-hydroxymethylphenoxy)-4-hydroxymethylbenzene-1,2-diamine]
solubility at 4 h ([3]; 0.01 M HCl, pH 2): 20.9 to 44.7 µg/mL (≈ 53.7 to 115 µM)

COC(=O)c1cc(N)c(Nc2ccc(C#N)cc2)cc1Oc1c(C)cc(CCC#N)cc1C [15c, 5-(4″-Cyanoethyl-2″,6″-dimethylphenoxy)-N^1-(4′-cyanophenyl)-4-methoxycarbonylbenzene-1,2-diamine]
microsomal CLint at 1 μM [2]: 40 µL/min/mg

Cc1cc(/C=C/C#N)cc(C)c1Oc1cc(Nc2ccc(C#N)cc2)c(N)cc1[N+](=O)[O-] [compound 3]
solubility at 4 h [3]: 0.29 µg/mL (≈ 0.682 µM)

Cc1cc(CCC#N)cc(C)c1Oc1cc(Nc2ccc(C#N)cc2)c(N)cc1N [15i, 5-(4″-Cyanoethyl-2″,6″-dimethyl)phenoxy-N^1-(4′-cyanophenyl)benzene-1,2,4-triamine]
SI (selectivity index) ([1]; Table 2): >3906

CNC(=O)c1cc(N)c(Nc2ccc(C#N)cc2)cc1Oc1c(C)cc(CCC#N)cc1C [15f, 5-(4″-Cyanoethyl-2″,6″-dimethylphenoxy)-N^1-(4′-cyanophenyl)-4-methylcarbanoylbenzene-1,2-diamine]
microsomal CLint at 1 μM [2]: 120 µL/min/mg

Cc1cc(CCC#N)cc(C)c1Oc1cc(Nc2ccc(C#N)cc2)c(N)cc1C(F)(F)F [15a, 5-(4″-Cyanoethyl-2″,6″-dimethylphenoxy)-N^1-(4′-cyanophenyl)-4-trifluoromethylbenzene-1,2-diamine]
solubility at 4 h ([3]; 0.01 M HCl, pH 2, Aqueous solubility pH 2.0, Table 4, pH 2.0, triplicate): 0.33 µg/mL (≈ 0.733 µM)
SI (selectivity index) ([1]; Table 1): > 6454
microsomal CLint at 1 μM [2]: 120 µL/min/mg

Cc1cc(/C=C/C#N)cc(C)c1Nc1ccnc(Nc2ccc(C#N)cc2)n1 [compound 2, rilpivirine, reference compound]
CC50 at 4 days [4]: 19400 nM
HLM t1/2 [2]: 34.2 min

COC(=O)c1cc(N)c(Nc2ccc(C#N)cc2)cc1Oc1c(C)cc(/C=C/C#N)cc1C [14c, (E)-N^1-(4′-Cyanophenyl)-5-(4″-cyanovinyl-2″,6″-dimethylphenoxy)-4-methoxycarbonylbenzene-1,2-diamine]
EC50 [1]: 2.74 nM
EC50 ([1]; read-out: EC50 NL4-3 (wt)): 2.74 ± 0.71 nM
microsomal CLint at 1 μM [2]: 20 µL/min/mg

Cc1cc(CCC#N)cc(C)c1Oc1cc(Nc2ccc(C#N)cc2)c(N)cc1C(N)=O [15e, 4-Carbanoyl-N^1-(4′-cyanophenyl)-5-(4″-cyanoethyl-2″,6″-dimethylphenoxy)benzene-1,2-diamine]
microsomal CLint at 1 μM [2]: 160 µL/min/mg

Cc1cc(/C=C/C#N)cc(C)c1Oc1cc(Nc2ccc(C#N)cc2)c(N)cc1C(=O)O [14d, (E)-4-Carboxy-N^1-(4′-cyanophenyl)-5-(4″-cyanovinyl-2″,6″-dimethylphenoxy)benzene-1,2-diamine]
EC50 ([1]; read-out: EC50 NL4-3 (wt)): 230 ± 38 nM
